Where two headings read alike, the source gives them in different places.
Experiments:
KHM-5M = assay: Growth inhibition of CDK9-positive tumor cell line in vitro; assay type: cell-based; details: read-out: Inhibitory activity (IC50) on growth in vitro, Human thyroid cancer
Method: (§1) Measurement of the Inhibitory Activity of the Present Compound on the Growth of Various Types of CDK9-Positive Tumor Cell Lines In Vitro
(§2) The inventors selected representative CDK9-positive tumor cell lines for further determination of the compound activity. All cell lines used came from ATCC, JCRB, DSMZ and Chinese Academy of Sciences Cell Bank (ZK). Cell culture condition and method were based on the requirements of each cell line. No more than 3 passages were carried out in each culture in vitro. Monoclonal purification and STR identification of the cell line were conducted if necessary.

HuCCT-1 = assay: as above; assay type: cell-based; details: Human cholangiocarcinoma, read-out: Inhibitory activity (IC50) on growth in vitro, HuCCT-1
Method: as §1, §2

MDA-MB-231 = assay: as above; assay type: cell-based; details: Human breast cancer, read-out: Inhibitory activity (IC50) on growth in vitro, MDA-MB-231
Method: as §1, §2

MX-1 = assay: as above; assay type: cell-based; details: MX1, Human breast cancer, read-out: Inhibitory activity (IC50) on growth in vitro, MX-1
Method: as §1, §2

MCF7 = assay: as above; assay type: cell-based; details: Human breast cancer, read-out: Inhibitory activity (IC50) on growth in vitro, MCF7
Method: as §1, §2

MDA-MB-453 = assay: as above; assay type: cell-based; details: Human breast cancer, read-out: Inhibitory activity (IC50) on growth in vitro, MDA-MB-453
Method: as §1, §2

Colo205 = assay: as above; assay type: cell-based; details: COLO 205, Human intestinal cancer, read-out: Inhibitory activity (IC50) on growth in vitro, Colo205
Method: as §1, §2

A375 = assay: as above; assay type: cell-based; details: A-375, Human melanoma, read-out: Inhibitory activity (IC50) on growth in vitro, A375
Method: as §1, §2

NCI-N87 = assay: as above; assay type: cell-based; details: Human stomach cancer, read-out: Inhibitory activity (IC50) on growth in vitro, NCI-N87
Method: as §1, §2

CA Ski = assay: as above; assay type: cell-based; details: Human cervical cancer, read-out: Inhibitory activity (IC50) on growth in vitro, CA Ski
Method: as §1, §2

HCT-116 = assay: as above; assay type: cell-based; details: Human intestinal cancer, read-out: Inhibitory activity (IC50) on growth in vitro, HCT-116
Method: as §1, §2

NCI-H1581 = assay: as above; assay type: cell-based; details: Human lung cancer, read-out: Inhibitory activity (IC50) on growth in vitro, NCI-H1581
Method: as §1, §2

MDA-MB-436 = assay: as above; assay type: cell-based; details: Human breast cancer, read-out: Inhibitory activity (IC50) on growth in vitro, MDA-MB-436
Method: as §1, §2

8305C = assay: as above; assay type: cell-based; details: Human thyroid cancer, read-out: Inhibitory activity (IC50) on growth in vitro, 8305C
Method: as §1, §2

NCI-H1993 = assay: as above; assay type: cell-based; details: Human lung cancer, read-out: Inhibitory activity (IC50) on growth in vitro, NCI-H1993
Method: as §1, §2

CAL-120 = assay: as above; assay type: cell-based; details: Human breast cancer, read-out: Inhibitory activity (IC50) on growth in vitro, CAL-120
Method: as §1, §2

Sk-ov-3 = assay: as above; assay type: cell-based; details: Human ovarian cancer, read-out: Inhibitory activity (IC50) on growth in vitro, Sk-ov-3
Method: as §1, §2

TPC-1 = assay: as above; assay type: cell-based; details: TPC1, Human thyroid cancer, read-out: Inhibitory activity (IC50) on growth in vitro, TPC-1
Method: as §1, §2

KG-1 = assay: as above; assay type: cell-based; details: Human acute myeloid leukemia, read-out: Inhibitory activity (IC50) on growth in vitro, KG-1
Method: as §1, §2

MOLM13 cells = assay: Growth inhibition of CDK9-positive cell line MOLM13 in vitro (CCK8/MTT assay); assay type: cell-based, human; details: Homo sapiens
[1] = MOLM-13, MOLM13 cells, cultured 3 to 6 days, CCK8, read-out: IC50 of the compound for inhibiting cell growth, MOLM13 cells

| Structure (SMILES) | IC50 (KHM-5M) [nM] | IC50 (HuCCT-1) [nM] | IC50 (MX-1) [nM] | IC50 (MCF7) [nM] | IC50 (Colo205) [nM] | IC50 (A375) [nM] | IC50 (NCI-N87) [nM] | IC50 (CA Ski) [nM] | IC50 (HCT-116) [nM] | IC50 (NCI-H1581) [nM] | IC50 (8305C) [nM] | IC50 (CAL-120) [nM] | IC50 (Sk-ov-3) [nM] | IC50 (TPC-1) [nM] | IC50 (KG-1) [nM] | IC50 (MOLM13 cells; [1]) [nM] | IC50 (MDA-MB-231) [nM] | IC50 (MDA-MB-453) [nM] | IC50 (MDA-MB-436) [nM] | IC50 (NCI-H1993) [nM] | other results |
| --- | --- | --- | --- | --- | --- | --- | --- | --- | --- | --- | --- | --- | --- | --- | --- | --- | --- | --- | --- | --- | --- |
| CCN1CCN(c2cccc(Nc3ncc(F)c(-n4cc(C(N)=O)c5cc(OC)ccc54)n3)c2)CC1 [Compound 152, 1-{2-[3-(4-ethyl-piperazin-1-yl)-phenylamino]-5-fluoro-pyrimidin-4-yl}-5-methoxy-1H-indole-3-carboxamide] | 1 to 10 | 1 to 10 | < 1 | < 1 | 1 to 10 | 1 to 10 | 1 to 10 | < 1 | 1 to 10 | < 1 | 1 to 10 | < 1 | < 1 | 1 to 10 | 1 to 10 | – | < 1 | < 1 | < 1 | 1 to 10 | IC50 (MOLM13 cells; MOLM-13, read-out: IC50 of the compound for inhibiting cell growth, MOLM13 cells): < 1 nM |
| CCN1CCN(c2cccc(Nc3ncc(F)c(-n4cc(C(N)=O)c5cc(F)ccc54)n3)c2)CC1 [Compound 161, 1-{2-[3-(4-ethyl-piperazin-1-yl)-phenylamino]-5-fluoro-pyrimidin-4-yl}-5-fluoro-1H-indole-3-carboxamide] | 1 to 10 | 1 to 10 | < 1 | < 1 | 1 to 10 | 1 to 10 | 1 to 10 | < 1 | 1 to 10 | < 1 | 1 to 10 | < 1 | < 1 | 1 to 10 | 1 to 10 | < 1 | < 1 | < 1 | < 1 | 10 to 100 | – |
| NC(=O)c1cn(-c2nc(Nc3cccc(N4CCN(C5CCOCC5)CC4)c3)ncc2F)c2ccccc12 [Compound 140, 1-(5-fluoro-2-{3-[4-(tetrahydro-pyran-4-yl)-piperazin-1-yl]-phenylamino}-pyrimidin-4-yl)-1H-indole-3-carboxamide] | < 1 | 1 to 10 | < 1 | < 1 | 1 to 10 | 1 to 10 | 1 to 10 | < 1 | 1 to 10 | < 1 | < 1 | < 1 | < 1 | < 1 | < 1 | < 1 | < 1 | < 1 | < 1 | 1 to 10 | – |

Now from value to compound, other results behind:

| IC50 (KHM-5M) [nM] | IC50 (HuCCT-1) [nM] | IC50 (MX-1) [nM] | IC50 (MCF7) [nM] | IC50 (Colo205) [nM] | IC50 (A375) [nM] | IC50 (NCI-N87) [nM] | IC50 (CA Ski) [nM] | IC50 (HCT-116) [nM] | IC50 (NCI-H1581) [nM] | IC50 (8305C) [nM] | IC50 (CAL-120) [nM] | IC50 (Sk-ov-3) [nM] | IC50 (TPC-1) [nM] | IC50 (KG-1) [nM] | IC50 (MOLM13 cells; [1]) [nM] | Structure (SMILES) | IC50 (MDA-MB-231) [nM] | IC50 (MDA-MB-453) [nM] | IC50 (MDA-MB-436) [nM] | IC50 (NCI-H1993) [nM] | other results |
| --- | --- | --- | --- | --- | --- | --- | --- | --- | --- | --- | --- | --- | --- | --- | --- | --- | --- | --- | --- | --- | --- |
| < 1 | 1 to 10 | < 1 | < 1 | 1 to 10 | 1 to 10 | 1 to 10 | < 1 | 1 to 10 | < 1 | < 1 | < 1 | < 1 | < 1 | < 1 | < 1 | CC(C)N1CCN(c2cccc(Nc3ncc(F)c(-n4cc(C(N)=O)c5ccccc54)n3)c2)CC1 [Compound 144, 1-{5-fluoro-2-[3-(4-isopropyl-piperazin-1-yl)-phenylamino]-pyrimidin-4-yl}-1H-indole-3-carboxamide] | < 1 | < 1 | < 1 | 1 to 10 | – |
| 10 to 100 | 100 to 1000 | 1 to 10 | 10 to 100 | 100 to 1000 | 100 to 1000 | 100 to 1000 | 10 to 100 | 100 to 1000 | 10 to 100 | 10 to 100 | 1 to 10 | 10 to 100 | 10 to 100 | 10 to 100 | < 1 | Cc1cc(Nc2ncc(Cl)c(-n3cc(C(N)=O)c4ccccc43)n2)ccc1N1CCN(C(C)C)CC1 [Compound 60, 1-{5-chloro-2-[4-(4-isopropyl-piperazin-1-yl)-3-methyl-phenylamino]-pyrimidin-4-yl}-1H-indole-3-carboxamide] | – | – | – | – | – |
